The subject of data set [1] is Mus musculus. Briefly: Antidiabetic activity in obese insulin-resistant db/db mouse assessed as reduction in blood glucose AUC at 100 mg/kg, po qd dosed for 7 days by oGTT relative to control. It is filed as functional. More on the design: scale not given: the % may be the effect or the level left.
For data set [2], the target named is Voltage-gated inwardly rectifying potassium channel KCNH2 (Homo sapiens, UniProt Q12809). Briefly: Inhibition of human ERG.
A short description of data set [3]: MRT in db/db mouse at 30 mg/kg, po qd after 1 to 24 hrs. It is filed as ADME, organism-based. The conditions noted are these: in vivo.
Data set [4] can be described thus: Total Cmax in db/db mouse at 30 mg/kg, po qd after 1 to 24 hrs. It counts as ADME, organism-based. Further details: dose 30 mg/kg, route oral. As to conditions: in vivo.
A short description of data set [5]: Plasma concentration in db/db mouse at 30 mg/kg, po measured at 1 to 24 hrs. It is filed as ADME, organism-based. As to conditions: in vivo.
For data set [6], the system named is Mus musculus. Briefly: Unbound Cmax in db/db mouse at 30 mg/kg, po qd after 1 to 24 hrs. The conditions noted are these: in vivo. It is filed as ADME, organism-based.
Data set [7] is described as follows: Half life in db/db mouse at 30 mg/kg, po qd. It counts as ADME, organism-based. As to conditions: in vivo.
A short description of data set [8]: Drug uptake in db/db mouse liver at 30 mg/kg, po measured at 1 to 24 hrs. It counts as ADME, organism-based. The conditions noted are these: in vivo.
A short description of data set [9]: Drug uptake in db/db mouse white adipose at 30 mg/kg, po measured at 1 to 24 hrs. As to conditions: in vivo. It is filed as ADME, organism-based, White adipose tissue.
Data set [10] can be described thus: Kinetic solubility in simulated gastric fluid. The conditions noted are these: read-out: Kinetic_solubility. It counts as physicochemical.
In another data set the test system is Salmonella typhimurium. Briefly: Genotoxicity in Salmonella typhimurium by Ames test. It counts as toxicity, organism-based. As to conditions: salmonella enterica subsp. enterica serovar typhimurium.
Data set [11] can be described thus: Drug uptake in db/db mouse skeletal muscle at 30 mg/kg, po measured at 1 to 24 hrs. The conditions noted are these: in vivo. It is filed as ADME, organism-based, Skeletal muscle tissue.
For data set [12], the system named is Mus musculus. Briefly: Hypoglycemic activity in obese insulin-resistant db/db mouse assessed as decrease in fasting blood glucose level at 100 mg/kg, po qd dosed for 7 days relative to control. It is filed as functional. Further details: scale not given: the % may be the effect or the level left.
For data set [13], the system named is Mus musculus. Briefly: In vivo induction of circadian clock modulation in db/db mouse at 30 mg/kg, po. It counts as functional, organism-based.
The nature of data set [14]: Drug uptake in db/db mouse brown adipose at 30 mg/kg, po measured at 1 to 24 hrs. It is filed as ADME, organism-based, Brown adipose tissue. The conditions noted are these: in vivo.
For data set [15], the system named is Mus musculus. The data set is described as follows: Antidiabetic activity in obese insulin-resistant po dosed db/db mouse assessed as reduction in blood glucose AUC administered qd for 7 days by oGTT. It counts as functional, organism-based.

Each structure is given as a SMILES string. In brackets after ≈: the same amount, converted by molar mass. Activity calls are given as the source filed them.

Voltage-gated inwardly rectifying potassium channel KCNH2, sequence (Q12809 whole entry): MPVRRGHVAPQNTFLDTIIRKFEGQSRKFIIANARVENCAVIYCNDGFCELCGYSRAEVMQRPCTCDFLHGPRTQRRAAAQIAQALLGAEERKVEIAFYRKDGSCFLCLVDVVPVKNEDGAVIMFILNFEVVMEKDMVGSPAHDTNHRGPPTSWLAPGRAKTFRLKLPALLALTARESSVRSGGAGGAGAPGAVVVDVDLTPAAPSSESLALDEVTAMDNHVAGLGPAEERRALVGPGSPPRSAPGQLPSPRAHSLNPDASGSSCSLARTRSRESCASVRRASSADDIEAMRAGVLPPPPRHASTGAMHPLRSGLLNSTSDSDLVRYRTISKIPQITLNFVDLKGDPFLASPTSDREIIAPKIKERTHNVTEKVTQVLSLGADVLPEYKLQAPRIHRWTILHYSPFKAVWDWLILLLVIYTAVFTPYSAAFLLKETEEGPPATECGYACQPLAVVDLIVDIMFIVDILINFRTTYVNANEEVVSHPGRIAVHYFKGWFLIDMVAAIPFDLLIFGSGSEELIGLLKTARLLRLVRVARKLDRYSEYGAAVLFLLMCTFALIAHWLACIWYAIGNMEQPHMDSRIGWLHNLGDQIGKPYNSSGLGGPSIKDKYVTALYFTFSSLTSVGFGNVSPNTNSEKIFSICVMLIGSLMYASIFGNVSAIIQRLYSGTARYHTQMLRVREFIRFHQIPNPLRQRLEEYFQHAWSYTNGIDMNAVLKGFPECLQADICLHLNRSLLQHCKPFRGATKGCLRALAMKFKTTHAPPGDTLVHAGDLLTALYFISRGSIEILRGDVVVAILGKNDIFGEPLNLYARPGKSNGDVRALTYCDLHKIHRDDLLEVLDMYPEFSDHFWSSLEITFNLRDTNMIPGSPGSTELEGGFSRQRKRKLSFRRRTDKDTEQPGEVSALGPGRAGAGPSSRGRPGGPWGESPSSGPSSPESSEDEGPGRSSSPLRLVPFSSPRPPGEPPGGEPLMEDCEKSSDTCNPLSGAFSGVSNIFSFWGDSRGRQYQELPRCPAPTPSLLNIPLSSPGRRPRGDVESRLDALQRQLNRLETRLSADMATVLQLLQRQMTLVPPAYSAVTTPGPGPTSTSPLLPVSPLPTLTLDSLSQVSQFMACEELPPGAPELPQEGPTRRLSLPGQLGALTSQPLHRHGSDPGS

As for `O=C1NCCN1CC(O)Cn1c2ccc(F)cc2c2cc(F)ccc21` (stereo unspecified), the Activity in the data set with Mus musculus [1] was 39%; with Salmonella typhimurium it was “Non-Toxic”; with Mus musculus [12], 14%; in the data set on Mus musculus [15] it was “Dose-dependent effect”. The “inhibition (INH)” value in data set [2] was “Not Active”. For the same molecule, in [3], the MRT (commonly a mean duration of stay, worked out from the concentration-time curve) was found to be 6.76 h. The Cmax (in general, the maximum level reached in the sampled fluid or tissue) in data set [4] came to 1090 nM. For the same molecule, the Drug uptake entry in data set [5], in data set [8], in [9], in data set [11] and in [14] was “Active” throughout. In addition, the fCmax in the data set on Mus musculus [6] was found to be 0.056 µM. Further, in data set [7], the half-life (commonly the time needed for the level to fall by half in the phase considered) is 2.83 h. For the same molecule, the solubility kinetic in data set [10] is 142 µM (≈ 48.9 µg/mL). Moreover, the result with Mus musculus [13] was Active.

Source of the values: ChEMBL document CHEMBL4184118, “Carbazole-containing amides and ureas: Discovery of cryptochrome modulators as antihyperglycemic agents” (Bioorg Med Chem Lett, 2018).
